Data as given in patent US11286247B2, “Acryloyl-containing nuclear transport regulators and uses thereof” (WIGEN BIOMEDICINE TECHNOLOGY (SHANGHAI) CO., LTD., priority 2019, dated 2022).
pIC50: −log10 of the molar value. Values after ≈ are worked out from the molar mass of the structure shown. “Also recorded” adds a separate entry of the source. Read-outs that look alike come from different tables or passages of the source.

Columns and labels:
[1] = system: BxPC-3 cells (pancreatic cancer); assay: Cancer cell proliferation assay, BxPC-3; assay type: cell-based; details: Homo sapiens, BXPC-3, 72 h; three days incubation, absorbance 570 nm; read-out: IC50 (μM) BxPC-3
Procedure: (§1) BxPC-3 cells (pancreatic cancer) and MDA-MB-231 cells (breast cancer cells) were harvested from exponential phase cultures and seeded in 96-well plates at a cell density of 2×10^4 per well. After overnight attachment, compounds including positive controls were applied to cells at five concentrations and incubated for three days. During the last four hours of incubation, 20 μL of 5 mg/mL […] was added followed by the further addition of 100 μL DMSO. The plates were subsequently shook for 10 minutes to dissolve insoluble purple formazan. Absorbance (A) at a wavelength of 570 nm was quantified. Percentage of inhibition was used for the calculation of IC50 based on the bliss method.

CRM1 = molecular target: T1, CRM1 (Homo sapiens, UniProt O14980); assay: Rev-GFP nuclear export assay; assay type: cell-based; details: U2OS cells expressing Rev-GFP, 1 hour incubation, nuclear retention of Rev-GFP
T1 construct: The nuclear localization of Rev protein depends on CRM1; endogenous in cells; host or cells: U2OS cells stably or transiently expressing Rev-GFP (reporter cargo)
Procedure: The Rev protein from HIV contains nuclear export sequence (NES) at its C terminus and nuclear localization sequence (NLS) at its N-terminus. The nuclear localization of Rev protein depends on CRM1. U2OS cells expressing Rev protein fused with GFP (Rev-GFP) were plated in black 384 plates with clear bottom one day prior to treatment. Compounds were serially diluted 2-fold from 40 μM with DMEM in 384 plates, and then incubated with U2OS cells for an hour. Cells were fixed with 3.7% formaldehyde afterwards and nuclei were stained with Hoechst33258. The nuclear retention of Rev-GFP was examined, and IC50 was calculated.

[2] = In vivo pharmacokinetic analysis; details: ICR, mouse; mice, 5 mg/kg, oral gavage in 0.5% CMC, plasma
Procedure: A group of 9 ICR mice received 5 mg/kg of compound in 0.5% CMC by oral gavage. Blood was taken before treatment and at 5 min, 30 min, 1, 2, 4, 8, 12 and 24 h after treatment. 80 μL of whole blood was sampled (n=3 at each time point) via retro-orbital bleeds or cardiac puncture. The blood sample was collected into EDTA tubes and plasma were obtained by centrifugation at 1500-1600 rpm for 10 min at 4° C. After centrifugation, plasma sample was transferred to a new tube and stored at −60 to −90° C. for future analysis. Plasma concentration of (compounds was quantified by a method based on liquid chromatography coupled to tandem mass-spectrometric detections (LC/MS/MS). Noncompartmental pharmacokinetics parameters were calculated.

[3] = system: MDA-MB-231 cells (breast cancer cells); assay: Cancer cell proliferation assay, MDA-MB-231; assay type: cell-based; details: Homo sapiens, MDA-MB-231, 72 h; three days incubation, absorbance 570 nm; read-out: IC50 (μM) MDA-MB-231
Procedure: as §1

Aqueous solubility assay = assay type: physicochemical; details: thermodynamic from solid, HPLC
Procedure: 10-30 mg of compounds were dissolved in water and an HCl solution at pH1.2 respectively, and then were continuously shook for three days, followed by centrifugation at 10000 rpm/minute for five minutes. A 2 mL aliquot of supernatant was removed and diluted to 50 mL to prepare a sample solution. A control solution was prepared by dissolving 2.5 mg compounds in methanol, which was subsequently diluted with water to a final volume of 50 mL. 20 μL of control and sample solutions were injected into HPLC. The area under the curve (A) of the sample solution was compared with that of the control solution and used for determination of the concentration. Solubility was calculated by the formula below. Solubility (mg/mL)=c(control)*25*A(sample)/A(control) • C (control): concentration of the control solution • A (sample): area under the curve of the sample solution • A (control): area under the curve of the control solution

BxPC-3 xenografts = assay: Anti-tumor growth efficacy in pancreatic tumor BxPC3 nude mice xenograft model; assay type: in vivo; details: for Tumor volume D1 / average body weight D1: D1, first day of drug treatment; for Tumor volume D1 / average body weight D1 / TGI (tumor growth inhibition) / Tumor volume D21 / average body weight D21 / RTV (relative tumor volume, Vt/V0) / T/C: oral: KPT-330 and 38 10 mg/kg tiw, 79 2.5 mg/kg tiw, 62 10 mg/kg qd; for TGI (tumor growth inhibition) / Tumor volume D21 / average body weight D21 / RTV (relative tumor volume, Vt/V0): D21; for RTV (relative tumor volume, Vt/V0): *P < 0.05 vs. vehicle group; for anti-tumor growth activity in BxPC-3 xenograft model (in words): Example 79 2.5 mg/kg, Example 38 10 mg/kg, compared to 10 mg/kg KPT-330; for T/C: TRTV/CRTV X 100
Procedure: BxPC-3 cells were cultured in 1640 medium containing 10% FBS at 37° C. and 5% CO2, 8×10^6 BxPc-3 cells were implanted subcutaneously into the left armpit of 40 nude mice. […] Compound 62 was administered orally everyday (qd) at 10 mg/kg, whereas KPT330 and compound 38 were given three times a week (tiw, Monday, Wednesday and Friday) at 10 mg/kg by oral gavage, and compound 79 were given three times a week (tiw, Monday, Wednesday and Friday) at 2.5 mg/kg by oral gavage. Tumor volume and body weight were measured every other day. Mice were sacrificed on day 21, and tumor and terminal body weight were recorded. The relative tumor volume, percent treatment/control values and tumor growth inhibition were calculated and statistics was performed.

[4] = simulated gastric fluid, HCl solution of pH 1.2, shaken three days, read-out: Solubility, HCl solution of pH 1.2
[5] = water, shaken three days, read-out: Solubility, Water

T1 sequence (O14980 whole entry): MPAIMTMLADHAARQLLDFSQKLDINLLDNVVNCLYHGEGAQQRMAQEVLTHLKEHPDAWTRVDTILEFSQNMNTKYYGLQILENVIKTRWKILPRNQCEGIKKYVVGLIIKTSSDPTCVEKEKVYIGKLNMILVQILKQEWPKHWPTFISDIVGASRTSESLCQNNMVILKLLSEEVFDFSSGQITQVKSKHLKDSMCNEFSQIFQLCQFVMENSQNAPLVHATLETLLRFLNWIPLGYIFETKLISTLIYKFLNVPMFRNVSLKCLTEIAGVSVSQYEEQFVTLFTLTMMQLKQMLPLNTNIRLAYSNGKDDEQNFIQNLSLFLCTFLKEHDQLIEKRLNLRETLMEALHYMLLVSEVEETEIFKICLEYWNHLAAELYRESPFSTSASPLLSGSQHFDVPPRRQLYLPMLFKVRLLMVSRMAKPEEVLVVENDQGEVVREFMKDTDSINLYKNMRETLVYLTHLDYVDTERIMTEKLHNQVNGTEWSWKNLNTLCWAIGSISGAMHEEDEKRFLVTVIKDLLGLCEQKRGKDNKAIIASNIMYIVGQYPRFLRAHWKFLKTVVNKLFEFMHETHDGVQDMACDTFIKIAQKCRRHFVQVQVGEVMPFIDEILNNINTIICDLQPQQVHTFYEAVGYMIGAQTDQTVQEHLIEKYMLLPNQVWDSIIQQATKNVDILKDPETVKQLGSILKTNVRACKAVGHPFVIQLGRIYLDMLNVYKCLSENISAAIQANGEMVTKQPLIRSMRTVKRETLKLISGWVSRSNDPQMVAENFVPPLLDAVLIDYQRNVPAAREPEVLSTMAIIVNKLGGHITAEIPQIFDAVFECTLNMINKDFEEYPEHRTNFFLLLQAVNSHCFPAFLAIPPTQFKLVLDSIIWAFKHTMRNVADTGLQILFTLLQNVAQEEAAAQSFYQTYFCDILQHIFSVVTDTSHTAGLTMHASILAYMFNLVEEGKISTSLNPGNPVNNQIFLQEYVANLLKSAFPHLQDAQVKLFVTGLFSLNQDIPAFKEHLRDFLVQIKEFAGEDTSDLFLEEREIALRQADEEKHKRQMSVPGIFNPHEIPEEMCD

Structure (SMILES) | IC50 [1] [µM] | pIC50 (CRM1) | AUC(0-t) [2] [ng·h/mL] | Cmax [2] [ng/mL] | MRT [2] [h] | Tmax [2] [h] | half-life [2] [h] | IC50 [3] [µM] | solubility at 3 days (Aqueous solubility assay; [4]) [µg/mL] | solubility at 3 days (Aqueous solubility assay; [5]) [µg/mL] | effect on body weight (in words) (BxPC-3 xenografts; 10 mg/kg, compared to KPT-330) | Tumor volume D1 (BxPC-3 xenografts) [mm^3] | average body weight D1 (BxPC-3 xenografts) [g] | TGI (tumor growth inhibition) (BxPC-3 xenografts) [%] | Tumor volume D21 (BxPC-3 xenografts) [mm^3] | average body weight D21 (BxPC-3 xenografts) [g] | RTV (relative tumor volume, Vt/V0) (BxPC-3 xenografts) | anti-tumor growth activity in BxPC-3 xenograft model (in words) (BxPC-3 xenografts) | T/C (BxPC-3 xenografts) [%]
O=C(/C=C\n1cnc(-c2cc(C(F)(F)F)cc(C(F)(F)F)c2)n1)NN1CCOCC1=O [Compound 38, (Z)-3-(3-(3,5-bis(trifluoromethyl)phenyl)-1H-1,2,4-triazol-1-yl)-N-(3-oxomorpholino)acrylamide] | 0.283 | > 6.00 | 4390 | 536 | 6.67 | 0.5 | 4.53 | 0.654 | 71.4 (≈ 159 µM) | 50.4 (≈ 112 µM) | less effect on body weight | 65.89 ± 12.63 | 19.02 | 78.20 | 149.62 ± 23.20 | 20.80 | 2.45* | greater efficacy | 36.02
COC1=CC(=O)N(NC(=O)/C=C\n2cnc(-c3cc(C(F)(F)F)cc(C(F)(F)F)c3)n2)C1 [Compound 79, (Z)-3-(3-(3,5-bis(trifluoromethyl)phenyl)-1H-1,2,4-triazol-1-yl)-N-(4-methoxy-2-oxo-2,5-dihydro-1H-pyrrol-1-yl)acrylamide] | 0.204 | > 6.00 | 3410 | 440 | 5.89 | 1 | 3.42 | 0.126 | 8.54 (≈ 18.5 µM) | 7.89 (≈ 17.1 µM) |  | 66.87 ± 9.13 | 20.15 | 84.37 | 126.90 ± 17.73 | 21.30 | 1.63* | significant anti-tumor growth activity; also recorded: more potent in inhibiting tumor growth | 49.20
